From US20060204502A1 (priority 2004, published 2006)
“And” between values parts separate entries of the source, which are not always exact repeats. Equal values may be shown once. Read-outs that look alike come from different tables or passages of the source.

Key:
[1] = test system: Human Colon Carcinoma HT29; assay: MTT growth inhibitory assay, HT29; format: cell-based; conditions: HT29 cells, A3 antagonist at 1 μg/ml
Procedure: (§1) Interpretation of the EF is dependent upon the concentrations of A3 receptor antagonist tested. For example, when using very low concentrations of A3 receptor antagonist, any EF above 1.0 is synergistic if the A3 receptor antagonist concentration is below the threshold of cell growth inhibition.
(§2) The cells are sub-cultured twice a week.
(§3) Vinblastine sulfate salt was obtained from Sigma Chemical Co., (V1377). Irinotecan was diluted with culture medium. All other agents were dissolved in 100% DMSO at appropriate concentrations. The DMSO stock solutions were diluted 100-fold with growth medium so that the final DMSO concentration was 1%.

[2] = test system: Human Pancreatic Cancer Panc-1; assay: MTT growth inhibitory assay, Panc-1; format: cell-based; conditions: Panc-1 cells, A3 antagonist at 1 μg/ml
Procedure: as §1, §2, §3

[3] = test system: Human Lung Carcinoma SKMES; assay: MTT growth inhibitory assay, SKMES; format: cell-based; conditions: SKMES cells, A3 antagonist at 1 μg/ml
Procedure: as §1, §2, §3

[4] = test system: A375 cells; assay: Colony formation assay of A375 cells; format: cell-based, human; conditions: 10 μM combined with paclitaxel (0.75 μg/ml), 7 days
Procedure: FIG. 2 illustrates colony formation assay of A375 cells. Cells were treated with different drugs and colonies were counted after 7 days. The values represent the mean±SEM of four independent experiments. […] Analysis was by ANOVA followed by Dunnett's test.
Control plates received the same volume of DMSO alone. After 7 days of growth at 37° C. in humidified atmosphere containing 5% CO2, the cells were fixed with absolute methanol for 5′ and stained with 1/10 Giemsa/phosphate-buffered saline (PBS) staining solution for 10 minutes. Staining solution was removed and colonies of greater than 30 cells were scored as survivors. For each treatment, six individual wells were scored.

[5] = test system: A375 cells; assay: Flow cytometry cell cycle (G2/M) and apoptosis (sub-G1) analysis, A375; format: cell-based, human; conditions: Homo sapiens, A-375, read-out: SEC50
Procedure: Flow Cytometry Analysis: A375 and NCTC2544 adherent cells were trypsinized, mixed with floating cells, washed with PBS and permeabilised in 70% (vol/vol) ethanol/PBS solution at 4° C. for at least 24 hours. Jurkat, HeL023 and PBMC cells were centrifuged for 10 minutes at 1000×g. The cell pellet was then resuspended and permeabllised in 70% (vol/vol) ethanol/PBS solution at 4° C. for at least 24 hours. The cells were washed with PBS and the DNA was stained with a PBS solution, containing 20 μg/ml of propidium iodide and 100 μg/ml of RNAse, at room temperature for 30 minutes. Cells were analysed by FACScan (Becton-Dickinson) and the content of DNA was evaluated by the Cell-LISYS program (Becton-Dickinson). Cell distribution among cell cycle phases and apoptotic cells was evaluated as previously described (Secchiero et al., 2001). Briefly, the cell cycle distribution is shown as the percentage of cells containing 2n (G1 phase), 4n (G2 and M phases), 4n>x>2n. DNA amount (S phase) judged by propidium iodide staining. The apoptotic population is the percentage of cells with DNA content lower than 2n.
After 24 hours, cells were collected for flow cytometry analysis. PD 98059 was used at 20 uM as an inhibitor of MEK to prevent MEK-1 activation. […]
EC50 values were obtained by analysing G2/M accumulation dose response curve. ECMAX values were obtained by analysing sub-G1 accumulation dose response curve. Paclitaxel values have units of ng/ml.

[6] = target: P-gp (Homo sapiens, UniProt P08183); format: cell-based; conditions: 10 μM; for P-gp mediated Rh123 efflux (FRES vs FMAX): 3 hours efflux
Procedure: Rhodamine 123 Efflux Assay: 5×10^5 cells from each subline were loaded with 50 ng/ml of rhodamine 123 for 30 minutes at 37 C in medium. The cells were washed and resuspended in dye-staining agent free medium for 3 hours at 37 C. to allow rhodamine 123 efflux. The cells were then washed twice and the fluorescence of intracellular rhodamine 123 were analysed with Flow cytometer (residual fluorescence FRES). The fluorescence was compared with loaded cells maintained at 4 C. to prevent drug export (maximal fluorescence FMAX). […] Cells from each subline that were not being exposed to rhodamine 123 were used as negative controls.
Rhodamine 123 (Rh123) retention, a P-gp functional assay, was studied in all cell lines. This assay was performed by incubating cells with Rh123 and determining Rh123 accumulation by measuring its fluorescence. The maximum load of Rh123 (FMAX) was quantified at the end of treatment harvesting the cells and storing them at 4° C. to prevent any active Rh123 efflux. The P-gp drug efflux was allowed incubating Rh123-loaded cells in fresh new medium Rh123-free for 3 hours at 37° C. After this incubation, residual fluorescence (FRES) was measured and compared to FMAX.

[7] = test system: Human Melanoma A375; assay: MTT growth inhibitory assay, A375; conditions: A375 cells
Procedure: An exemplary assay may comprise the following steps: Cells (1000-1500 cells/well) are seeded in a 96-well micro culture plate in a total volume of 100 μl/well. After overnight incubation in a humidified incubator at 37° C. with 5% CO2-95% air, chemotherapeutic drug solutions diluted with culture medium at various concentrations are added in the amount of 100 μl to each well. The plates are placed in a humidified incubator at 37° C. with 5% CO2-95% air for 7-10 days. The plates are then centrifuged briefly and 100 μl of the growth medium is removed. Cell cultures are incubated with 50 μl of MTT [3-(4,5-dimethylthiazol-2-yl)-2,5-diphenyl-tetrazolium bromide] reagent (1 mg/ml in Dulbecco's phosphate-buffered saline) for 4 hr at 37° C. The resultant purple formazan precipitate is solubilized with 200 μl of 0.04 N HCl in isopropanol. Absorbance is measured at a wavelength of 595 nm and at a reference wavelength of 655 nm using a Bio-Rad Model 3550 Microplate Reader. Preferably, all tests are run in duplicate for each dose level. […] The EZED50 computer program estimates the concentration of agent that inhibits cell growth by 50% as compared to the control cells. This is termed the IC50 and is determined by curve fitting test data using the following four logistic equation. [formula]
If testing concentrations are properly selected (i.e., no or little growth inhibition at low concentrations and complete inhibition at high concentrations), EZED50 program fits the data extremely well and estimates the IC50 value accurately. […] In these instances, the data could be re-analyzed by fixing the Amax value.
In this case, the IC50 could be estimated more accurately if both the Amax and Amin values are fixed. Although it may be feasible to estimate IC50 value by fixing Amax and/or Amax and Amin without repeating the experiment, the best way to determine the IC50 accurately is to decrease or increase the concentrations of the test agent and repeat the test.
Inhibitory assay testing is also used to determine enhanced therapeutic effects from combining A3 receptor antagonists with other tumor inhibiting agents. The inhibitory cell growth assays are run with and without selected concentrations of A3 receptor antagonists. An enhanced therapeutic effect is present when the IC50 of the tumor inhibiting agent is lower with the A3 receptor antagonist.
Quantitatively, the enhancement factor (EF) is calculated by dividing the IC50 value of the tumor inhibiting agent for a tumor cell line by the IC50 value of the agent with A3 receptor antagonist for the same cell line: [formula]
The cells are cultured in a T25 Falcon Tissue Culture flask in a humidified incubator at 37° C. with 5% CO2-95% air. The cells are sub-cultured twice a week.

Chain of P-gp (P08183 whole entry): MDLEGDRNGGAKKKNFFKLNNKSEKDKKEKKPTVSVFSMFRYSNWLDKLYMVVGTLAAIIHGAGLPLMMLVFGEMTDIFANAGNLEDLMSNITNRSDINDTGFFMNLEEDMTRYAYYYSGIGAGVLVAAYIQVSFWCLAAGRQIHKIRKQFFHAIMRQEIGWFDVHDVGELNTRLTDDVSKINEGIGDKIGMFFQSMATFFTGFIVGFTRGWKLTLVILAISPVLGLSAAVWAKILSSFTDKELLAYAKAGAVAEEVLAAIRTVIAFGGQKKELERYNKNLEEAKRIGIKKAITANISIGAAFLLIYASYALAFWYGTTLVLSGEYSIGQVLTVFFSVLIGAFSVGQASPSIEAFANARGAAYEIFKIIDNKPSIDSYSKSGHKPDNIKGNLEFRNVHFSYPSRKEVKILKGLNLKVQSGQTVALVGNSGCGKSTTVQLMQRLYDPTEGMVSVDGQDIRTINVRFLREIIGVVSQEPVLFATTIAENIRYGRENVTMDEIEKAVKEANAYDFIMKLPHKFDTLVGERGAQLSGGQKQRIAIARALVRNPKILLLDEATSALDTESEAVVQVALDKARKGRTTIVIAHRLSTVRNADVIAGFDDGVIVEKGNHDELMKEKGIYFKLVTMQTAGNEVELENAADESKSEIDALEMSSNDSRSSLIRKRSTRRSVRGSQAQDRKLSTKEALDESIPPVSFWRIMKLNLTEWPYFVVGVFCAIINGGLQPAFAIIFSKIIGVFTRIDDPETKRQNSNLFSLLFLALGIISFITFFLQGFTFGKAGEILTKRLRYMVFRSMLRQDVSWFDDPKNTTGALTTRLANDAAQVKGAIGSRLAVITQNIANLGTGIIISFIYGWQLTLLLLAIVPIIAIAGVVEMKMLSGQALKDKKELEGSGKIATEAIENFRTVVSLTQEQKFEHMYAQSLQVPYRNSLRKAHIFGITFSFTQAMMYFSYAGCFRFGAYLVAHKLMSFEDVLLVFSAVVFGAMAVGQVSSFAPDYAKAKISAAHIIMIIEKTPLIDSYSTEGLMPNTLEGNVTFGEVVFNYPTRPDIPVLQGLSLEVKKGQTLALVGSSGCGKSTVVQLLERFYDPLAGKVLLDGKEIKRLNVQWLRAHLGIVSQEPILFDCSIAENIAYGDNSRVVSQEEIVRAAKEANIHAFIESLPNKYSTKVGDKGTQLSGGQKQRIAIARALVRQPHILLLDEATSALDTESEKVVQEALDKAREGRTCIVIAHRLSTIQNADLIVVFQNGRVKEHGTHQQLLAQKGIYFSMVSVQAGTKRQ

With `CCCn1cc2c(nc(NC(=O)Nc3ccc(OC)cc3)n3nc(-c4ccco4)nc23)n1` [MRE3008F20, 5-[[(4-Methoxyphenyl)amino]carbonyl]amino-8-propyl-2-(2-furyl)-pyrazolo[4,3-e]1,2,4-triazolo[1,5-c]pyrimidine] the “Enhancement Factor” value ([1]; enhancement of docetaxel IC50) was 15.0, the “Enhancement Factor” value ([1]; enhancement of doxorubicin IC50) was 1.6 and the “Enhancement Factor” value ([1]; enhancement of irinotecan IC50) was 1.8. The “Enhancement Factor” value ([1]; enhancement of paclitaxel IC50) was 2.9, the “Enhancement Factor” value ([2]; enhancement of docetaxel IC50) was 1.8 and the “Enhancement Factor” value ([2]; enhancement of paclitaxel IC50) was 1.9. The “Enhancement Factor” value ([3]; enhancement of docetaxel IC50) was 3.6, the “Enhancement Factor” value ([3]; enhancement of irinotecan HCL IC50) was 2.1 and the “Enhancement Factor” value ([3]; enhancement of paclitaxel IC50) was 4.1. The “Enhancement Factor” value ([3]; enhancement of vinblastine IC50) was 1.2, the “colony formation, % of DMSO control” value [4] was 0.2% and the EC50 [5] was 550 ± 60 nM. For the same compound, the “P-gp mediated Rh123 efflux (FRES vs FMAX)” value ([6]; A375 cells) was “completely blockade of P-gp mediated Rh123 transport”, the “% of Rh123 Negative Cells (cells expressing P-gp activity)” value ([6]; HeL023 cells) was 0.5 ± 0.3% and the “P-gp mediated Rh123 efflux (FRES vs FMAX)” value ([6]; HeL023 cells) was “near total P-gp inhibition”. For the same compound, the “Enhancement Factor” value ([7]; enhancement of docetaxel IC50, A3 antagonist at 3 μg/ml) was 6.9, the “Enhancement Factor” value ([7]; enhancement of docetaxel IC50, A3 antagonist at 10 μg/ml) was 5.3 and the “Enhancement Factor” value ([7]; enhancement of paclitaxel IC50, A3 antagonist at 1 μg/ml) was 7.1. For the same compound, the “Enhancement Factor” value ([7]; enhancement of paclitaxel IC50, A3 antagonist at 3 μg/ml) was 6.4, the “Enhancement Factor” value ([7]; enhancement of paclitaxel IC50, A3 antagonist at 10 μg/ml) was 7.1 and 8.5 and the Enhancement Factor ([7]; enhancement of paclitaxel, at all three concentrations (1, 3, and 10 μg/ml)) was 6.4-7.1.
